According to US20070027201A1 (Wyeth, priority 2005, published 2007):

Target: T1, progesterone receptor (Homo sapiens, UniProt P06401)
T1 sequence (P06401 1-933): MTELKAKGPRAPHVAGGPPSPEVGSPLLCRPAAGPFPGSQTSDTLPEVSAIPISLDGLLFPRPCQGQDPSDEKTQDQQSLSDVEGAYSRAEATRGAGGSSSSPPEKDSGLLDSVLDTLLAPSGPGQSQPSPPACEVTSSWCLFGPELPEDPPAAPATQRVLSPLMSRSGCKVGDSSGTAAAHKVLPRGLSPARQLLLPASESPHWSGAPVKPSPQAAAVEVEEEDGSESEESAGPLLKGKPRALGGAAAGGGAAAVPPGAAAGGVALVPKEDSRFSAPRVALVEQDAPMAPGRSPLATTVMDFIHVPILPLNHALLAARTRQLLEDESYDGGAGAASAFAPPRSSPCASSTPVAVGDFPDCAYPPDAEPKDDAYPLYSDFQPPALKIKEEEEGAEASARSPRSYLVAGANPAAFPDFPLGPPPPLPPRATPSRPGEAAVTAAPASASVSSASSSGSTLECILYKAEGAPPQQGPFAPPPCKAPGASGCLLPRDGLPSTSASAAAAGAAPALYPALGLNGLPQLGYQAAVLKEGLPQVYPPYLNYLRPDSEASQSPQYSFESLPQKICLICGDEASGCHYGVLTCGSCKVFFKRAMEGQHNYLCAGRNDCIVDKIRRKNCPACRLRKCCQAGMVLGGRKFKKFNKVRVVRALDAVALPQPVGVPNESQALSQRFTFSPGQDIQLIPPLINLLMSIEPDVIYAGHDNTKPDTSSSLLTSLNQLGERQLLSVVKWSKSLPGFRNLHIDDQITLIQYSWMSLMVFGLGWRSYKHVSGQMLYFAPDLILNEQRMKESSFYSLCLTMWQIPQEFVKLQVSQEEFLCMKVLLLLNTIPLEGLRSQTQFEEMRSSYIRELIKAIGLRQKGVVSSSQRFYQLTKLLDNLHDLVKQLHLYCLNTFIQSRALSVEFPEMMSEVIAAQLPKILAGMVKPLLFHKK
Assay: T47D alkaline phosphatase assay for progesterone receptor modulator (antagonist) activity
Assay type: cell-based
Parameters: endogenous in cells; host or cells: T47D cells
Settings: T47D cells; for IC50: antagonist mode in the presence of 1 nM progesterone, 24 hours; for Antagonist Efficacy: in the presence of 1 nM progesterone
Experimental: An assay was performed to identify compounds having progesterone receptor modulator activity. This assay identifies progestins or antiprogestins by determining a compound's effect on alkaline phosphatase activity in T47D cells.
Culture medium: DMEM:F12 (1:1) (GIBCO, BRL) supplemented with 5% (v/v) charcoal stripped fetal bovine serum (not heat-inactivated), 100 U/mL penicillin, 100 μg/mL streptomycin, and 2 mM the GlutaMax® reagent (GIBCO, BRL).
Alkaline phosphatase assay buffer: • I. 0.1M Tris-HCl, pH 9.8, containing 0.2% the Triton™ X-100 reagent • II. 0.1M Tris-HCl, pH 9.8, containing 4 mM p-nitrophenyl phosphate (Sigma).
Frozen T47D cells are thawed in a 37° C. water bath and diluted to 280,000 cells/mL in culture medium. To each well in a 96-well plate (Falcon, Becton Dickinson Labware), 180 μL of diluted cell suspension is added.
Twenty μL of reference or test compounds diluted in the culture medium is then added to each well. When testing for progestin antagonist activity, reference antiprogestins or test compounds are added in the presence of 1 nM progesterone. The cells are incubated at 37° C. in a 5% CO2/humidified atmosphere for 24 hours.
For high throughput screening, one concentration of each compound will be tested at 0.3 μg/mL. Based on an average molecular weight of 300 g/mol for the compounds in the library, the concentration is approximately 1 μM. Subsequently, active compounds will be tested in dose response assays to determine EC50 and IC50.
At the end of treatment, the medium is removed from the plate. Fifty μL of assay buffer I is added to each well. The plates are shaken in a titer plate shaker for 15 minutes. Then 150 μL of assay buffer II is added to each well. Optical density measurements are taken at 5 minute intervals for 30 minutes at a test wavelength of 405 nm.
Analysis of dose-response data. For reference and test compounds, a dose response curve is generated for dose (x-axis) vs. the rate of enzyme reaction (slope) (y-axis). Square root-transformed data are used for analysis of variance and nonlinear dose response curve fitting for both agonist and antagonist modes. Huber weighting is used to down-weight the effects of outliers. EC50 or IC50 values are calculated from the retransformed values. The JMP® software (SAS Institute, Inc.) is used for both one-way analysis of variance and non-linear dose response analysis in both single dose and dose response studies.
Progesterone and trimegestone are reference progestins and RU486 is the reference antiprogestin. All reference compounds are run in full dose response curves and the EC50 and IC50 values are calculated.
In the table provided above, the IC50 values show the relative progesterone receptor antagonist activity in this assay. Lower numbers are indicative of higher potency, i.e., greater PR antagonist activity. Further, the assay has a standard deviation of about ±6.

Structure (SMILES)	IC50 [nM]	further results
Cn1c(C#N)ccc1-c1ccc(NS(C)(=O)=O)c(C#N)c1 [Example 77, N-[2-cyano-4-(5-cyano-1-methyl-1H-pyrrol-2-yl)phenyl]methanesulfonamide]		Active Dose: 3 µM; inhibition at 3 µM (at Active Dose 3000 nM): 50%
Cn1c(C#N)ccc1-c1ccc(NS(C)(=O)=O)cc1C#N [Example 74, N-[3-cyano-4-(5-cyano-1-methyl-1H-pyrrol-2-yl)phenyl]methanesulfonamide]	198	
CCC(=O)Nc1ccc(-c2ccc(C#N)n2C)cc1 [Example 6, N-[4-(5-cyano-1-methyl-1H-pyrrol-2-yl)phenyl]propanamide]	76.7	
COc1cc(NC#N)ccc1-c1ccc(C#N)n1C [Example 36, [4-(5-cyano-1-methyl-1H-pyrrol-2-yl)-3-methoxyphenyl]cyanamide]	83.9	
CC(C)S(=O)(=O)Nc1ccc(-c2ccc(C#N)n2C)c(F)c1 [Example 44, N-[4-(5-cyano-1-methyl-1H-pyrrol-2-yl)-3-fluorophenyl]propane-2-sulfonamide]	9.3	Active Dose: 10 µM
CCCS(=O)(=O)Nc1ccc(-c2ccc(C#N)n2C)cc1OC(F)(F)F [Example 61, N-[4-(5-cyano-1-methyl-1H-pyrrol-2-yl)-2-(trifluoromethoxy)phenyl]propane-1-sulfonamide]	40.7	
CC(C)S(=O)(=O)Nc1ccc(-c2ccc(C#N)n2C)c(C(F)(F)F)c1 [Example 56, N-[4-(5-cyano-1-methyl-1H-pyrrol-2-yl)-3-(trifluoromethyl)phenyl]propane-2-sulfonamide]	25.2	
Cn1c(C#N)ccc1-c1ccc(NC(=O)C2CCCCC2)cc1 [Example 11, N-[4-(5-cyano-1-methyl-1H-pyrrol-2-yl)phenyl]cyclohexane-carboxamide]	325	
CC(C)S(=O)(=O)Nc1cc(F)c(-c2ccc(C#N)n2C)cc1F [Example 50, N-[4-(5-cyano-1-methyl-1H-pyrrol-2-yl)-2,5-difluorophenyl]propane-2-sulfonamide]	231	
Cn1c(C#N)ccc1-c1ccc(NC#N)c(Cl)c1 [Example 33, [2-chloro-4-(5-cyano-1-methyl-1H-pyrrol-2-yl)phenyl]cyanamide]	897	
C=CCn1c(C#N)ccc1-c1ccc(NS(=O)(=O)CC)cc1 [Example 69, N-[4-(1-allyl-5-cyano-1H-pyrrol-2-yl)phenyl]ethanesulfonamide]	600	

The next lines start with results.

IC50 [nM]	Structure (SMILES)	further results
8.2	Cn1c(C#N)ccc1-c1ccc(NS(C)(=O)=O)cc1 [Example 25, N-[4-(5-cyano-1-methyl-1H-pyrrol-2-yl)phenyl]methanesulfonamide]	
< 300	CC(C)c1cc(-c2ccc(C#N)n2C)ccc1NC#N [Example 32, [4-(5-cyano-1-methyl-1H-pyrrol-2-yl)-2-isopropylphenyl]cyanamide]	
84.1	CCn1c(C#N)ccc1-c1ccc(NS(=O)(=O)CC)cc1 [Example 66, N-[4-(5-cyano-1-ethyl-1H-pyrrol-2-yl)phenyl]ethanesulfonamide]	Antagonist Efficacy: 80%
78.8	CCCC(=O)Nc1ccc(-c2ccc(C#N)n2C)cc1 [Example 7, N-[4-(5-cyano-1-methyl-1H-pyrrol-2-yl)phenyl]butanamide]	
~30	Cn1c(C#N)ccc1-c1ccc(NS(=O)(=O)c2ccccc2)cc1 [Example 21, N-[4-(5-cyano-1-methyl-1H-pyrrol-2-yl)phenyl]benzenesulfonamide]	
126	Cn1c(C#N)ccc1-c1ccc(NC(=O)c2ccco2)cc1 [Example 3, N-[4-(5-cyano-1-methyl-1H-pyrrol-2-yl)phenyl]-2-furamide]	
10.2	CCS(=O)(=O)Nc1ccc(-c2ccc(C#N)n2C)c(C(F)(F)F)c1 [Example 53, N-[4-(5-cyano-1-methyl-1H-pyrrol-2-yl)-3-(trifluoromethyl)phenyl]ethane-sulfonamide]	
68.6	CCS(=O)(=O)Nc1ccc(-c2ccc(C#N)[nH]2)cc1 [Example 65, N-[4-(5-cyano-1H-pyrrol-2-yl)phenyl]ethanesulfonamide]	Antagonist Efficacy: 85%
